Results published in ChEMBL document CHEMBL1152302, “Dihydropyrrole[2,3-d]pyridine derivatives as novel corticotropin-releasing factor-1 antagonists: mapping of the receptor binding pocket by in silico docking studies” (J Med Chem, 2008).

Target: T1, Corticotropin-releasing factor receptor 1 (Homo sapiens, UniProt P34998)
T1 sequence (P34998 whole entry): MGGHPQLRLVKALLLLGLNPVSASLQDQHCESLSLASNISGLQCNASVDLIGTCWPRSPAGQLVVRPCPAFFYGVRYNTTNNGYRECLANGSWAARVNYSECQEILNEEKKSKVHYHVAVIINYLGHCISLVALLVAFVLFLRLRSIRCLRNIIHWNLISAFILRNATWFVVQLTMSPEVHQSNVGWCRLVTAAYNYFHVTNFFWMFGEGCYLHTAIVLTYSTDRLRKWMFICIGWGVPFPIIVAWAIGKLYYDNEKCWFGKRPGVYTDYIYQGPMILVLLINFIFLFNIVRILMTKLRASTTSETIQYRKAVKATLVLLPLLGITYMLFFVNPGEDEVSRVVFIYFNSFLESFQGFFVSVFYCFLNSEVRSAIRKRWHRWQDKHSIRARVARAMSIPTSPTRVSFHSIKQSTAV
Experiment: Displacement of [125I]sauvagine from human recombinant CRF1 receptor expressed in CHO cells by SPA
Assay type: cell-based

IC50 [nM]	SMILES
851	Cc1cc(-n2ccc(-c3nccs3)n2)c2c(n1)N(c1ccc(C#N)cc1-c1cccs1)CC2
214	COc1ccc(N2CCc3c(-n4ccc(-c5nccs5)n4)cc(C)nc32)c(OC)n1
> 10000	Cc1cc(-n2ccc(-c3nccs3)n2)c2c(n1)N(c1ccc(F)cc1[N+](=O)[O-])CC2
> 10000	Cc1cc(-n2ccc(-c3nccs3)n2)c2c(n1)N(c1ccc(Cl)cc1[N+](=O)[O-])CC2
> 10000	COc1ccc(N2CCc3c(-n4ccc(-c5nccs5)n4)cc(C)nc32)c([N+](=O)[O-])c1
3890	Cc1cc(-n2ccc(-c3nccs3)n2)c2c(n1)N(c1ccc(S(C)(=O)=O)cc1S(C)(=O)=O)CC2
58.9	Cc1cc(-n2ccc(-c3nccs3)n2)c2c(n1)N(c1ccc([N+](=O)[O-])cc1C(F)(F)F)CC2
363	Cc1cc(-n2ccc(-c3ccccn3)n2)c2c(n1)N(c1ccc(C#N)cc1Cl)CC2
224	Cc1cc(-n2ccc(-c3ccccn3)n2)c2c(n1)N(c1ccc(C#N)cc1C)CC2
257	Cc1cc(-n2ccc(-c3nccs3)n2)c2c(n1)N(c1cnc(N(C)C)cc1C)CC2
3470	Cc1cc(-n2ccc(-c3nccs3)n2)c2c(n1)N(c1ccc(O)cc1C)CC2
> 10000	Cc1cc(-n2ccc(-c3nccs3)n2)c2nc(C(F)(F)F)n(-c3ccc(C(F)(F)F)cc3C(F)(F)F)c2n1
7410	Cc1cc(-n2ccc(-c3nccs3)n2)c2c(n1)N(c1ccc(C#N)cc1C#N)CC2
427	COc1ccc(-n2ccc3c(-n4ccc(-c5nccs5)n4)cc(C)nc32)c(C)c1
> 10000	COc1ccc2c(c1)CCN2c1cc(-n2ccc(-c3nccs3)n2)cc(C)n1
8320	Cc1cc(-n2ccc(-c3nccs3)n2)c2[nH]c(=O)n(-c3ccc(C(F)(F)F)cc3C(F)(F)F)c2n1
53.7	COc1ccc(N2CCc3c(-n4ccc(-c5nccs5)n4)cc(C)nc32)c(C)c1
27.5	Cc1cc(-n2ccc(-c3nccs3)n2)c2c(n1)N(c1ccc(C(F)(F)F)cc1C(F)(F)F)CC2

IC50 [nM]	SMILES
8710	COc1ccc(N2CCc3c(-n4ccc(-c5nccs5)n4)cc(C)nc32)cc1
2040	Cc1cc(-n2ccc(-c3nccs3)n2)c2c(n1)N(c1ccc(C#N)cc1F)CC2
93.3	Cc1cc(-n2ccc(-c3ccccn3)n2)c2c(n1)N(c1ccc(C#N)cc1C(F)(F)F)CC2
126	CCc1cc(C#N)ccc1N1CCc2c(-n3ccc(-c4nccs4)n3)cc(C)nc21
162	Cc1cc(-n2ccc(-c3nccs3)n2)c2c(n1)N(c1ccc(F)cc1C)CC2
316	Cc1cc(-n2ccc(-n3cccn3)n2)c2c(n1)N(c1ccc(C#N)cc1C)CC2
56.2	COc1ccc(N2CCc3c(-n4ccc(-c5nccs5)n4)cc(C)nc32)c(Cl)c1
145	Cc1cc(-n2ccc(-n3cccn3)n2)c2c(n1)N(c1ccc(C#N)cc1C(F)(F)F)CC2
174	COc1ccc(N2CCc3c(-n4ccc(-c5nccs5)n4)cc(C)nc32)c(OC)c1
> 10000	Cc1cc(-n2ccc(-c3nccs3)n2)c2nc(C)n(-c3ccc(C(F)(F)F)cc3C(F)(F)F)c2n1
60.3	COc1ccc(N2CCc3c(-n4ccc(-c5nccs5)n4)cc(C)nc32)c(C)n1
2750	Cc1cc(-n2ccc(-c3nccs3)n2)c2cnn(-c3ccc(C#N)cc3C)c2n1
> 10000	Cc1cc(-n2ccc(-c3nccs3)n2)c2c(n1)N(c1ccc(C(F)(F)F)cc1C(F)(F)F)S(=O)(=O)C2
115	Cc1cc(-n2ccc(-n3cccn3)n2)c2c(n1)N(c1ccc(C#N)cc1Cl)CC2
2340	Cc1cc(-n2ccc(-c3nccs3)n2)c2c(n1)N(c1ccc(S(C)(=O)=O)cc1Cl)CC2
34.7	COc1ccc(N2CCc3c(-n4ccc(-c5nccs5)n4)cc(C)nc32)c(C(F)F)c1
229	Cc1cc(-n2ccc(-c3nccs3)n2)c2c(n1)N(c1ccc(C#N)cc1Cl)CC2
